Reference: patent publication US8426462B2, “Ferrocene derivatives with anticancer activity” (Centre National de la Recherche Scientifique (CNRS), priority 2008, dated 2013)

How the values were obtained:
[1] = system: MDA-MB-231 cells (non-hormone-dependent breast cancer cells); conditions: read-out: Antiproliferative effect (IC50)
Method: (§1) The antiproliferative effects of compounds of the invention were tested on MDA-MB-231 cells, which are non-hormone-dependent breast cancer cells, on PC-3 cells, which are non-hormone-dependent prostate cancer cells and on MCF-7 cells, which are hormone-dependent breast cancer cells.
(§2) The experimental method used for this test is described in Hillard E. A. et al. Chem. Med. Chem. 2006, 1, 551-559.

[2] = system: PC-3 cells (non-hormone-dependent prostate cancer cells); conditions: read-out: Antiproliferative effect (IC50)
Method: as §1, §2

[3] = system: MCF-7 cells (hormone-dependent breast cancer cells containing ERα); assay: Proliferative/antiproliferative effect on MCF-7 cells; assay type: cell-based; conditions: for IC50: MCF-7, approximate, estrogen effect plus cytotoxic activity, read-out: IC50 on MCF-7 line (converted); for proliferative effect based on the control: MCF-7, without phenol red, 10^−8M
Source text: The purely cytotoxic effect appears at higher concentrations where the resultant of the two components (estrogen effect plus cytotoxic activity) is therefore evidenced. It is thus difficult to achieve very accurate IC50 values for the MCF-7 line.

Compound | IC50 [1] [nM] | IC50 [2] [nM] | IC50 [3] [nM] | proliferative effect based on the control [3] [%]
1,2-[1-[1,1-bis(4-hydroxyphenyl)methylidene]tetramethylene]-ferrocene [Compound 9] | 500 |  |  | 
(R)-1,1′-[1-[1,1-bis(4-hydroxyphenyl)methylidene]-3-methyltrimethylene]ferrocene [Compound 7] | 780 |  |  | 
1,1′-[2-[1,1-bis(4-hydroxyphenyl)methylidene]trimethylene]ferrocene [Compound 5] | 960 | 1080 | ~1000 | 
1,1′-[1-[(4-hydroxyphenyl)(phenyl)-methylidene]trimethylene]ferrocene [Compound 12] | 470 |  |  | 
1,1′-[1-[1,1-bis(4-hydroxyphenyl)methylidene]-2-methyltrimethylene]ferrocene [Compound 11] | 630 |  |  | 
(S)-1,1′-[1-[1,1-bis(4-hydroxyphenyl)methylidene]-3-methyltrimethylene]ferrocene [Compound 6] | 2700 |  |  | 
1,1′-[1-[1,1-bis(4-hydroxyphenyl)methylidene]trimethylene]ferrocene [Compound 4] | 80 | 940 | ~4000 | 162
1,2-[1-[1,1-bis(4-hydroxyphenyl)methylidene]trimethylene]ferrocene [Compound 8] | 2700 |  |  | 
C[C@]12CC[C@@H]3c4ccc(O)cc4CC[C@H]3[C@@H]1CC[C@@H]2O [estradiol, reference compound] |  |  |  | 264
